Assay results published in the CheMixHub viscosity set.
± gives the uncertainty stated by the source.

Assay: xn = mol fraction of the nth substance listed

Nc1cccc(Cl)c1 + CCC(C)O
viscosity [mPa·s], 101 kPa
Conditions | x1 = 0.0889 | x1 = 0.1799 | x1 = 0.2733 | x1 = 0.3691 | x1 = 0.4674 | x1 = 0.5683 | x1 = 0.6719 | x1 = 0.7783 | x1 = 0.8876
303.15 K | 2.756 ± 0.093 | 2.919 ± 0.098 | 3.087 ± 0.1 | 3.256 ± 0.11 | 3.422 ± 0.11 | 3.585 ± 0.12 | 3.744 ± 0.12 | 3.904 ± 0.13 | 4.07 ± 0.13
308.15 K | 2.318 ± 0.079 | 2.483 ± 0.084 | 2.65 ± 0.09 | 2.817 ± 0.095 | 2.983 ± 0.1 | 3.148 ± 0.11 | 3.313 ± 0.11 | 3.48 ± 0.12 | 3.654 ± 0.12
313.15 K | 2.001 ± 0.069 | 2.157 ± 0.074 | 2.312 ± 0.079 | 2.467 ± 0.084 | 2.623 ± 0.089 | 2.779 ± 0.094 | 2.937 ± 0.099 | 3.097 ± 0.1 | 3.261 ± 0.11
318.15 K | 1.706 ± 0.06 | 1.857 ± 0.065 | 2.003 ± 0.069 | 2.147 ± 0.074 | 2.29 ± 0.078 | 2.434 ± 0.083 | 2.579 ± 0.087 | 2.727 ± 0.092 | 2.874 ± 0.097

CCC(C)c1ccccc1 (centres undefined) + CCCCCCCCCCCC
viscosity [mPa·s], 102 kPa
Conditions | x1 = 0.1008 | x1 = 0.2007 | x1 = 0.2993 | x1 = 0.4003 | x1 = 0.4998 | x1 = 0.62 | x1 = 0.6996 | x1 = 0.7999 | x1 = 0.9004
293.15 K | 1.41 ± 0.02 | 1.33 ± 0.02 | 1.26 ± 0.02 | 1.19 ± 0.02 | 1.131 ± 0.021 | 1.064 ± 0.021 | 1.027 ± 0.021 | 0.992 ± 0.021 | 0.959 ± 0.021
303.15 K | 1.19 ± 0.02 | 1.128 ± 0.021 | 1.072 ± 0.021 | 1.02 ± 0.021 | 0.971 ± 0.021 | 0.923 ± 0.021 | 0.896 ± 0.021 | 0.862 ± 0.021 | 0.835 ± 0.021
313.15 K | 1.015 ± 0.021 | 0.973 ± 0.021 | 0.935 ± 0.021 | 0.893 ± 0.021 | 0.853 ± 0.021 | 0.812 ± 0.021 | 0.784 ± 0.021 | 0.755 ± 0.021 | 0.732 ± 0.021
323.15 K | 0.888 ± 0.021 | 0.852 ± 0.021 | 0.817 ± 0.021 | 0.783 ± 0.021 | 0.751 ± 0.021 | 0.717 ± 0.021 | 0.694 ± 0.021 | 0.669 ± 0.021 | 0.649 ± 0.021

CC12CCC(CC1)C(C)(C)O2 + C=CC(C)(O)CCC=C(C)C
viscosity [mPa·s], 101.33 kPa
Conditions | 298.15 K | 313.15 K
x1 = 0.0536 | 4.296 ± 0.035 | 2.489 ± 0.02
x1 = 0.1357 | 4.062 ± 0.033 | 2.401 ± 0.02
x1 = 0.2205 | 3.835 ± 0.031 | 2.316 ± 0.019
x1 = 0.3081 | 3.614 ± 0.029 | 2.236 ± 0.018
x1 = 0.4288 | 3.347 ± 0.027 | 2.138 ± 0.018
x1 = 0.562 | 3.093 ± 0.025 | 2.048 ± 0.017
x1 = 0.605 | 3.019 ± 0.025 | 2.023 ± 0.017
x1 = 0.6809 | 2.9 ± 0.024 | 1.983 ± 0.016
x1 = 0.8027 | 2.74 ± 0.022 | 1.933 ± 0.016
x1 = 0.8783 | 2.66 ± 0.022 | 1.91 ± 0.016
x1 = 0.9599 | 2.591 ± 0.021 | 1.892 ± 0.016
